Data on eight molecules can be found in PubChem BioAssay (NCI).

Structures are written as SMILES.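 Cultured in 96-well plates, cells were exposed to test compound for 48 hours across five concentrations. The concentration for 50% growth inhibition is given as GI50. TGI marks complete inhibition of growth.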

Assay in all cases: NCI-60 cell line screen, 48 h
Assay [1] has as its system CCRF-CEM leukemia.
Assay [2] has as its system HS 578T breast.
For assay [3], the system named is IGROV1 ovarian.
Assay [4] relates to MDA-MB-231 breast.
For assay [5], the system named is NCI/ADR-RES ovarian.
Assay [6] has as its system OVCAR-8 ovarian.
In assay [7] the test system is SN12C renal.
Assay [8] concerns SR leukemia.
In assay [9] the test system is UACC-257 melanoma.
Assay [10] concerns UO-31 renal.

As to `C[C@H](Nc1ncnc2nc[nH]c12)c1cc2ccc(F)cc2nc1-c1ccccn1`, the GI50 in assay [1] was over 70.2 µM; in [2], 18.7 µM; in [3], 20.4 µM; in assay [4] it was over 80 µM; in assay [5], over 100 µM; in [6] it was over 100 µM. The GI50 in assay [7] was 57.8 µM; in assay [8] it was 33.4 µM; in [9], over 100 µM; in assay [10], 9.3 µM. The TGI in [1], in assay [2], in assay [3], in assay [4], in [5] and in assay [6] was over 100 µM throughout. Further, the TGI in assay [7], in assay [8], in [9] and in assay [10] was over 100 µM each time.
On to `O=C(CN(/C=C/C(=O)C(F)(F)F)c1ccc(Cl)cc1)c1ccccc1`, for which the GI50 was 8.8 µM in assay [1]; 24.3 µM in [2]; 0.303 µM in [3]; 15.8 µM in assay [4]; 14.1 µM in [5]; 44 µM in [6]. In addition, the GI50 in [7] was 16 µM; in assay [8] it was 14.8 µM; in [9], 14.5 µM; in [10], 13.5 µM. Further, the TGI in assay [1] is 33.5 µM; in [2], 68.1 µM; in assay [3], 24.3 µM; in [4], 33.8 µM; in assay [5], 30.3 µM; in [6], over 100 µM. Besides, the TGI came to 34.2 µM in assay [7], 57 µM in assay [8], 34.9 µM in assay [9] and 29.9 µM in assay [10].
Take `Cc1ccccc1-n1ncc(C(=O)c2ccccc2)c1N`: the GI50 in [1], in [2], in assay [3], in assay [4], in assay [5] and in assay [6] was over 25 µM in each case. The GI50 in assay [7], in assay [8], in [9] and in [10] was over 25 µM throughout. In addition, the TGI in assay [1], in assay [2], in assay [3], in assay [4], in assay [5] and in assay [6] was over 25 µM throughout. The TGI in assay [7], in assay [8], in [9] and in assay [10] was over 25 µM throughout.
`O=C1c2nsnc2C(=O)c2c(F)c(F)c(F)c(F)c21`: the GI50 in assay [1] is 0.117 µM; in assay [2] it was 0.342 µM; in assay [3], 1.52 µM; in [4], 1.38 µM; in [5], 1.63 µM; in assay [6] it was 2.8 µM. Besides, the GI50 in assay [7] is 0.998 µM; in assay [8], 0.0528 µM; in [9], 1.61 µM; in [10], 0.702 µM. Also, the TGI worked out at 0.542 µM in [1]; 1.96 µM in assay [2]; 5.07 µM in assay [3]; 2.78 µM in [4]; 4.33 µM in assay [5]; 72.7 µM in assay [6]. Further, the TGI in assay [7] was 2.28 µM; in [9], 3 µM; in assay [10] it was 2 µM.
`COc1ccc(C(SCC(N)C(=O)O)(c2ccccc2)c2ccccc2)cc1` (centres undefined): the GI50 is 0.0992 µM in [1]; 0.0432 µM in [2]; 0.443 µM in [3]; 0.23 µM in assay [4]; 2.12 µM in [5]; 0.482 µM in [6]. Besides, the GI50 was 0.199 µM in assay [7], 3.21 µM in [8], 26.3 µM in [9] and 13.6 µM in [10]. Besides, the TGI was over 100 µM in assay [1]; 3.1 µM in [2]; over 82.3 µM in [3]; 4.72 µM in [4]; 33.7 µM in [5]; over 100 µM in assay [6]. The TGI in assay [7] is over 68.4 µM; in assay [8] it was over 100 µM; in [9], over 100 µM; in assay [10], over 100 µM.
In the case of `COC(=O)C(=O)C(C(=O)C(=O)Nc1nc2ccc(C)cc2s1)c1nc2ccc([N+](=O)[O-])cc2[nH]c1=O` (centres undefined), the TGI in [1], in assay [2], in assay [3], in [4], in assay [5] and in assay [6] was over 100 µM throughout. The TGI in assay [7], in assay [8], in [9] and in assay [10] was over 100 µM each time.
On to `C[C@]12CC[C@H](O)C[C@H]1CC[C@@H]1[C@@H]2CC[C@]2(C)[C@@H](C3=CC(=O)OC3)[C@@H](O)C[C@]12O`, for which the TGI is 2.42 µM in assay [1]; over 21.8 µM in [2]; 37.3 µM in assay [3]; 20.1 µM in [4]; 3.9 µM in assay [5]; 14.6 µM in assay [6]. Moreover, the TGI came to 3.25 µM in assay [7], 3.63 µM in [8], 5.46 µM in assay [9] and 2.26 µM in assay [10].
`C=CC(C1=CC(=O)C(OC)=CC1=O)c1ccccc1` (centres undefined): the TGI in assay [1] was 6.77 µM; in [2], 69.7 µM; in assay [3] it was 30.3 µM; in assay [4], 19.2 µM; in assay [5], 44.8 µM; in assay [6] it was 58.7 µM. For the same molecule, the TGI in assay [7] stood at 28 µM; in [8], 26.5 µM; in [9], 34.8 µM; in [10] it was 29.6 µM.
